Assay results published in ChEMBL document CHEMBL4041541, “Solvent free, catalyst free, microwave or grinding assisted synthesis of bis-cyclic imide derivatives and their evaluation for anticancer activity” (Bioorg Med Chem Lett, 2017).

Assays:
T47D [1] = assay: Growth inhibition of human T47D cells at 1 x 10^-5 M after 24 hrs by MTT assay relative to control; assay type: functional; conditions: read-out: GI
HepG2 [2] = assay: Growth inhibition of human HepG2 cells after 24 hrs by MTT assay; assay type: functional, cell-based; conditions: HepG2, 24 h
T47D [3] = assay: Growth inhibition of human T47D cells after 24 hrs by MTT assay; assay type: functional, cell-based
[4] = Selectivity index, ratio of IC50 for HEK293T cells to IC50 for human HepG2 cells; assay type: functional
HEK-293T = assay: Growth inhibition of HEK293T cells after 24 hrs by MTT assay; assay type: cell-based; conditions: Homo sapiens
NCI-H522 [5] = assay: Growth inhibition of human NCI-H522 cells after 24 hrs by MTT assay; assay type: functional, cell-based; conditions: NCI-H522, 24 h
NCI-H522 [6] = assay: Growth inhibition of human NCI-H522 cells at 1 x 10^-5 M after 24 hrs by MTT assay relative to control; assay type: functional; conditions: NCI-H522, 24 h, read-out: GI
PA-1 [7] = assay: Growth inhibition of human PA1 cells after 24 hrs by MTT assay; assay type: functional, cell-based; conditions: PA-1, 24 h
PA-1 [8] = assay: Growth inhibition of human PA1 cells at 1 x 10^-5 M after 24 hrs by MTT assay relative to control; assay type: functional; conditions: PA-1, 24 h, read-out: GI
[9] = Selectivity index, ratio of IC50 for HEK293T cells to IC50 for human NCI-H522 cells; assay type: functional
[10] = Selectivity index, ratio of IC50 for HEK293T cells to IC50 for human HCT15 cells; assay type: functional
HepG2 [11] = assay: Growth inhibition of human HepG2 cells at 1 x 10^-5 M after 24 hrs by MTT assay relative to control; assay type: functional; conditions: HepG2, 24 h, read-out: GI
HCT-15 [12] = assay: Growth inhibition of human HCT15 cells after 24 hrs by MTT assay; assay type: functional, cell-based; conditions: HCT-15, 24 h
[13] = Selectivity index, ratio of IC50 for HEK293T cells to IC50 for human PA1 cells; assay type: functional
[14] = Selectivity index, ratio of IC50 for HEK293T cells to IC50 for human T47D cells; assay type: functional
HCT-15 [15] = assay: Growth inhibition of human HCT15 cells at 1 x 10^-5 M after 24 hrs by MTT assay relative to control; assay type: functional; conditions: HCT-15, 24 h, read-out: GI

| IC50 (HepG2 [2]) [µM] | IC50 (T47D [3]) [µM] | IC50 (NCI-H522 [5]) [µM] | IC50 (HCT-15 [12]) [µM] | SMILES | inhibition of growth at 10 µM (T47D [1]) [%] | Ratio IC50 [4] | IC50 (HEK-293T) [µM] | inhibition of growth at 10 µM (NCI-H522 [6]) [%] | IC50 (PA-1 [7]) [µM] | inhibition of growth at 10 µM (PA-1 [8]) [%] | Ratio IC50 [9] | Ratio IC50 [10] | inhibition of growth at 10 µM (HepG2 [11]) [%] | Ratio IC50 [13] | Ratio IC50 [14] | inhibition of growth at 10 µM (HCT-15 [15]) [%] |
| --- | --- | --- | --- | --- | --- | --- | --- | --- | --- | --- | --- | --- | --- | --- | --- | --- |
| 24.1 | 19.1 | 32.8 | 17.9 | O=C1c2nc[nH]c2C(=O)N1CCN1C(=O)c2nc[nH]c2C1=O | 21 | 2.5 - 4.5 | 62.7 | 56 | 17.5 | 24 | 2.5 - 4.5 | 2.5 - 4.5 | 38 | 2.5 - 4.5 | 2.5 - 4.5 | 33 |
| 17.3 | 14.5 | 38 | 21.1 | O=C1C2CC=CCC2C(=O)N1CCOCCOCCN1C(=O)C2CC=CCC2C1=O (stereo not drawn) | 51 | 2.5 - 4.5 | 44.2 | 59 | 18.8 | 31 | 2.5 - 4.5 | 2.5 - 4.5 | 53 | 2.5 - 4.5 | 2.5 - 4.5 | 45 |
| 17.1 | 12.7 | 19.6 | 63.3 | O=C1C2CCCCC2C(=O)N1c1ccc(S(=O)(=O)c2ccc(N3C(=O)C4CCCCC4C3=O)cc2)cc1 (stereo not drawn) | 51 | 2.5 - 4.5 | 43.6 | 49 | 22.6 | 36 | 2.5 - 4.5 | 2.5 - 4.5 | 57 | 2.5 - 4.5 | 2.5 - 4.5 | 65 |
